Data taken from patent US7947688B2, “N-[3-(3-substituted-pyrazolo[1,5-a]pyrimidin-7-yl)phenyl]-sulfonamides, and compositions, and methods related thereto” (Ferrer Internacional, S.A., priority 2003, dated 2011).

Key:
[1] = test system: male CD1 mice; assay: Predictive sedation-hypnosis test in mice (motor activity, crossings); type: in vivo; conditions: single equimolecular intraperitoneal dose, crossings over 30 min after dosing (first 5 min discarded) versus control
Protocol: • In vivo determination of predictive sedative-hypnotic action.
The in vivo effects of these compounds were assessed by a predictive sedation-hypnosis test in mice (D. J. Sanger et al., Eur. J. Pharmacol., 313, 35-42, 1996; and G. Griebel et al., Psychopharmacology, 146, 205-213, 1999). Groups of 5-8 male CD1 mice, weighing 22-26 g at the time of test, were used. The test compounds were administered in single equimolecular intraperitoneal doses, suspended in 0.25% agar with one drop of Tween in a volume of 10 ml/kg. Control animals received the vehicle alone. Using an Actisystem DAS16 (Panlab, S. L., Spain) the crossings (number of counts) were recorded for each mouse at 5-min intervals during a period of 30 minutes after dosing. The inhibition percentage of crossings of treated animals versus control animals (the first 5 min were discarded) was calculated.

[2] = molecular target: α2-GABAA receptor (Rattus norvegicus, UniProt P18508+P23576); assay: Ligand-binding assay, radiolabeled flumazenil competition, rat spinal cord membranes; conditions: for inhibition at 10 µM: read-out: % Inhibition (10^−5 M), affinity for α2-GABAA receptor; for inhibition at 0.1 µM: read-out: % Inhibition (10^−7 M), affinity for α2-GABAA receptor
Protocol: Determination of the affinity of test compounds for α1- and α2-GABAA receptor.
Male Sprague-Dawley rats weighing 200-250 g at the time of experiment were used. After decapitation of the animal, the cerebellum (tissue that mostly contains α1-GABAA receptor) and spinal cord (tissue that mostly contains α2-GABAA receptor) were removed. The membranes were prepared according to the method by J. Lameh et al. (Prog. Neuro-Psychopharmacol. Biol. Psychiatry, 24, 979-991, 2000). Once the tissues weighed, they were suspended in 50 mM Tris.HCl (pH 7.7), 1:40 (v/v), homogenized and then centrifuged at 20000 g for 10 min at 7° C. The resulting pellet was resuspended under the same conditions and centrifuged again. The pellet was finally resuspended on a minimum volume and kept at −80° C. overnight. On the next day, the process was repeated until the final pellet was resuspended at a ratio of 1:10 (v/v).
Affinity was determined by competitive tests using radiolabeled flumazenil as ligand. The tests were performed according to the methods described by S. Arbilla et al. (Eur. J. Pharmacol., 130, 257-263, 1986); and Y. Wu et al. (Eur. J. Pharmacol., 278, 125-132, 1995). The membranes containing the study receptors, flumazenil (radiolabeling at a final concentration of 1 nM) and ascending concentrations of test compounds (in a total volume of 500 μl in […] [ph 7.4] Tris.HCl buffer) were incubated. Simultaneously, the membranes were only incubated with the radiolabeled flumazenil (total binding, 100%) and in the presence of an elevated concentration of unradiolabeled flumazenil (non-specific binding, % estimation of radiolabeled ligand). The reactions started on adding the radiolabeled ligand followed by incubation for 60 minutes at 0° C. At the end of the incubation period, the tubes were filtered using a Brandel Mod. M-48R harvester and then washed three times with cold test buffer. The harvester was fitted with a GF/B filter that retained the membranes containing the receptors and the radiolabeled ligand which had been bound to the receptors. Then the filters were removed and left till dry. Once dried, the filters were cut, placed in vials with scintillation liquid and left under stirring overnight. The next day the filters were counted using a Packard Mod. Tricarb scintillation counter.
X: amount of bound ligand for every concentration of compound.
T: total binding, maximum amount bound to the radiolabeled ligand.
N: non-specific binding, amount of radiolabeled ligand bound in a non-specific way irrespective of the receptor used.
Every concentrations of compound were tested in duplicate and their mean values were used to determine the experimental values of % specific binding versus the concentration of compound. […] Inhibition constants (Ki) were calculated from the IC50 values according to Cheng-Prusoff's formula (Y. Cheng y W. H. Prusoff, Biochem. Pharmacol., 22(23), 3099-3108, 1973).

Compound	% Motor Activity Inhibition [1]	inhibition at 10 µM [2]	inhibition at 0.1 µM [2]
CCN(c1cccc(-c2ccnc3c(C#N)cnn23)c1)S(C)(=O)=O [Example 5, N-[3-(3-cyano-pyrazolo[1,5-a]pyrimidin-7-yl)-phenyl]-N-ethyl-methanesulfonamide]	80.91%		
CCN(c1cccc(-c2ccnc3c(C(=O)c4cccs4)cnn23)c1)S(C)(=O)=O [Example 6, N-ethyl-N-{3-[3-(thiophene-2-carbonyl)-pyrazolo[1,5-a]pyrimidin-7-yl]-phenyl}-methanesulfonamide]	66.55%		
C#CCN(c1cccc(-c2ccnc3c(C(=O)c4cccs4)cnn23)c1)S(C)(=O)=O [Example 16, N-2-propynyl-N-{3-[3-(thiophene-2-carbonyl)-pyrazolo[1,5-a]pyrimidin-7-yl]-phenyl}-methanesulfonamide]	95.36%		
CCCN(c1cccc(-c2ccnc3c(C(=O)c4cccs4)cnn23)c1)S(=O)(=O)CC [Example 17, N-propyl-N-{3-[3-(thiophene-2-carbonyl)-pyrazolo[1,5-a]pyrimidin-7-yl]-phenyl}-ethanesulfonamide]	94.21%	74.5%	0%
CCN(c1cccc(-c2ccnc3c(C(=O)c4cccs4)cnn23)c1)S(=O)(=O)CC [Example 18, N-ethyl-N-{3-[3-(thiophene-2-carbonyl)-pyrazolo[1,5-a]pyrimidin-7-yl]-phenyl}-ethanesulfonamide]	93.39%	93.7%	20.7%
C#CCN(c1cccc(-c2ccnc3c(C(=O)c4cccs4)cnn23)c1)S(=O)(=O)C(C)C [Example 19, N-2-propynyl-N-{3-[3-(thiophene-2-carbonyl)-pyrazolo[1,5-a]pyrimidin-7-yl]-phenyl}-2-propanesulfonamide]	89.88%	94.4%	45.2%
CCS(=O)(=O)N(C)c1cccc(-c2ccnc3c(C(=O)c4cccs4)cnn23)c1 [Example 20, N-methyl-N-{3-[3-(thiophene-2-carbonyl)-pyrazolo[1,5-a]pyrimidin-7-yl]-phenyl}-ethanesulfonamide]	95.23%	97.7%	40.3%
O=C(c1cccs1)c1cnn2c(-c3cccc(N4CCCS4(=O)=O)c3)ccnc12 [Example 22, 7-(3-(2-isothiazolidinyl-1,1-dioxide)-phenyl)-3-(thiophene-2-carbonyl)-pyrazolo[1,5-a]pyrimidine]	91.39%	98.2%	24.2%
CC(C)S(=O)(=O)N(C)c1cccc(-c2ccnc3c(C(=O)c4cccs4)cnn23)c1 [Example 23, N-methyl-N-{3-[3-(thiophene-2-carbonyl)-pyrazolo[1,5-a]pyrimidin-7-yl]-phenyl}-2-propane-sulfonamide]	94.57%	93.8%	45.5%
CCN(c1cccc(-c2ccnc3c(C(=O)c4cccs4)cnn23)c1)S(=O)(=O)C(C)C [Example 24, N-ethyl-N-{3-[3-(thiophene-2-carbonyl)-pyrazolo[1,5-a]pyrimidin-7-yl]-phenyl}-2-propane-sulfonamide]	94.01%	83%	10.4%
CCCN(c1cccc(-c2ccnc3c(C(=O)c4cccs4)cnn23)c1)S(=O)(=O)C(C)C [Example 25, N-propyl-N-{3-[3-(thiophene-2-carbonyl)-pyrazolo[1,5-a]pyrimidin-7-yl]-phenyl}-2-propane-sulfonamide]	92.79%	78.9%	9.1%
C#CCN(c1cccc(-c2ccnc3c(C#N)cnn23)c1)S(C)(=O)=O [Example 27, N-[3-(3-cyano-pyrazolo[1,5-a]pyrimidin-7-yl)-phenyl]-N-2-propynyl-methanesulfonamide]	93.12%	85.2%	2.9%
CCN(c1cccc(-c2ccnc3c(C#N)cnn23)c1)S(=O)(=O)CC [Example 29, N-[3-(3-cyano-pyrazolo[1,5-a]pyrimidin-7-yl)-phenyl]-N-ethyl-ethanesulfonamide]	93.73%	92.7%	13.4%
C#CCN(c1cccc(-c2ccnc3c(C#N)cnn23)c1)S(=O)(=O)C(C)C [Example 30, N-[3-(3-cyano-pyrazolo[1,5-a]pyrimidin-7-yl)-phenyl]-N-2-propynyl-propane-2-sulfonamide]	94.86%	73.3%	0%
N#Cc1cnn2c(-c3cccc(N4CCCS4(=O)=O)c3)ccnc12 [Example 33, 7-(3-(2-isothiazolidinyl-1,1-dioxide)-phenyl)-3-cyano-pyrazolo[1,5-a]pyrimidine]	77.58%	45.2%	0%
CC(C)S(=O)(=O)N(C)c1cccc(-c2ccnc3c(C#N)cnn23)c1 [Example 34, N-[3-(3-cyano-pyrazolo[1,5-a]pyrimidin-7-yl)-phenyl]-N-methyl-2-propanesulfonamide]	92.58%	87.6%	6.9%
CCN(c1cccc(-c2ccnc3c(C#N)cnn23)c1)S(=O)(=O)C(C)C [Example 35, N-[3-(3-cyano-pyrazolo[1,5-a]pyrimidin-7-yl)-phenyl]-N-ethyl-2-propanesulfonamide]	92.55%	86.5%	24.5%
CCCN(c1cccc(-c2ccnc3c(C#N)cnn23)c1)S(=O)(=O)C(C)C [Example 37, N-[3-(3-cyano-pyrazolo[1,5-a]pyrimidin-7-yl)-phenyl]-N-propyl-2-propanesulfonamide]	92.13%	40.2%	0%
C#CCN(c1cccc(-c2ccnc3c(C#N)cnn23)c1)S(=O)(=O)CC [Example 38, N-[3-(3-cyano-pyrazolo[1,5-a]pyrimidin-7-yl)-phenyl]-N-2-propynyl-ethanesulfonamide]	94.85%	77.6%	17.4%
CN(c1cccc(-c2ccnc3c(C(=O)c4ccccn4)cnn23)c1)S(C)(=O)=O [Example 39, N-methyl-N-{3-[3-(pyridin-2-carbonyl)-pyrazolo[1,5-a]pyrimidin-7-yl]-phenyl}-methanesulfonamide]	95.28%	96.6%	23.3%
CCN(c1cccc(-c2ccnc3c(C(=O)c4ccccn4)cnn23)c1)S(C)(=O)=O [Example 40, N-ethyl-N-{3-[3-(pyridin-2-carbonyl)-pyrazolo[1,5-a]pyrimidin-7-yl]-phenyl}-methanesulfonamide]	94.32%	99.5%	47.3%
CCN(c1cccc(-c2ccnc3c(C(=O)c4ccncc4)cnn23)c1)S(C)(=O)=O [Example 46, N-ethyl-N-{3-[3-(pyridin-4-carbonyl)-pyrazolo[1,5-a]pyrimidin-7-yl]-phenyl}-methanesulfonamide]	93.98%	97.6%	11.9%
CCN(C(C)=O)c1cccc(-c2ccnc3c(C#N)cnn23)c1 [Zaleplon, reference compound]	47.17%		
